What was measured:
Assay in all cases: relative viability (nuclei count vs DMSO), 5 days (fraction); higher = more cells survive
Selisistat + Palbociclib = compound: C1CC(C2=C(C1)C3=C(N2)C=CC(=C3)Cl)C(=O)N [Selisistat] + CC(=O)c1c(C)c2cnc(Nc3ccc(N4CCNCC4)cn3)nc2n(C2CCCC2)c1=O [Palbociclib] (partner 0.5 µM)
Procedure, shortened: (§1)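 Relative viability equals treated-well nuclei counts divided by vehicle-well nuclei counts. Counts came from 4× images of lung cancer cell lines grown in 1536-well plates for 5 days after pin-tool dosing on the day after seeding. Dosing used one drug alone or a fixed anchor-drug dose plus five library-drug doses (not always all listed) in √10 steps, and values are medians of duplicate plates.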

Selisistat + Navitoclax = compound: C1CC(C2=C(C1)C3=C(N2)C=CC(=C3)Cl)C(=O)N [Selisistat] + CC1(C)CCC(c2ccc(Cl)cc2)=C(CN2CCN(c3ccc(C(=O)NS(=O)(=O)c4ccc(N[C@H](CCN5CCOCC5)CSc5ccccc5)c(S(=O)(=O)C(F)(F)F)c4)cc3)CC2)C1 [Navitoclax] (partner 0.5 µM)
Procedure, shortened: as §1

Serdemetan + Crizotinib = compound: c1ccc2c(CCNc3ccc(Nc4ccncc4)cc3)c[nH]c2c1 [Serdemetan] + C[C@@H](Oc1cc(-c2cnn(C3CCNCC3)c2)cnc1N)c1c(Cl)ccc(F)c1Cl [Crizotinib] (partner 1 µM)
Procedure, shortened: as §1

Serdemetan + Linsitinib = compound: c1ccc2c(CCNc3ccc(Nc4ccncc4)cc3)c[nH]c2c1 [Serdemetan] + C[C@]1(O)C[C@@H](c2nc(-c3ccc4ccc(-c5ccccc5)nc4c3)c3c(N)nccn32)C1 [Linsitinib] (partner 1 µM)
Procedure, shortened: as §1

## NCI-H1437
Selisistat + Palbociclib; first compound 0.4 µM
  relative viability: 0.325
Selisistat + Palbociclib; first compound 1.265 µM
  relative viability: 0.282
Selisistat + Palbociclib; first compound 4 µM
  relative viability: 0.227
Selisistat + Palbociclib; first compound 12.65 µM
  relative viability: 0.213
Selisistat + Palbociclib; first compound 40 µM
  relative viability: 0.242
Selisistat + Navitoclax; first compound 0.4 µM
  relative viability: 1.13
Selisistat + Navitoclax; first compound 1.265 µM
  relative viability: 1.1
Selisistat + Navitoclax; first compound 4 µM
  relative viability: 1.1
Selisistat + Navitoclax; first compound 12.65 µM
  relative viability: 1.01
Selisistat + Navitoclax; first compound 40 µM
  relative viability: 0.919
Serdemetan + Crizotinib; first compound 0.04 µM
  relative viability: 0.835
Serdemetan + Crizotinib; first compound 0.1265 µM
  relative viability: 1.03
Serdemetan + Crizotinib; first compound 0.4 µM
  relative viability: 0.786
Serdemetan + Crizotinib; first compound 1.265 µM
  relative viability: 0.778
Serdemetan + Crizotinib; first compound 4 µM
  relative viability: 0.8
Serdemetan + Linsitinib; first compound 0.04 µM
  relative viability: 0.993
Serdemetan + Linsitinib; first compound 0.1265 µM
  relative viability: 1.02
Serdemetan + Linsitinib; first compound 0.4 µM
  relative viability: 0.975
Serdemetan + Linsitinib; first compound 1.265 µM
  relative viability: 0.861
Serdemetan + Linsitinib; first compound 4 µM
  relative viability: 0.687

## NCI-H1651
Selisistat + Palbociclib; first compound 0.4 µM
  relative viability: 0.508
Selisistat + Palbociclib; first compound 1.265 µM
  relative viability: 0.532
Selisistat + Palbociclib; first compound 4 µM
  relative viability: 0.499
Selisistat + Palbociclib; first compound 12.65 µM
  relative viability: 0.474
Selisistat + Palbociclib; first compound 40 µM
  relative viability: 0.517
Selisistat + Navitoclax; first compound 0.4 µM
  relative viability: 0.902
Selisistat + Navitoclax; first compound 1.265 µM
  relative viability: 0.974
Selisistat + Navitoclax; first compound 4 µM
  relative viability: 0.934
Selisistat + Navitoclax; first compound 12.65 µM
  relative viability: 1
Selisistat + Navitoclax; first compound 40 µM
  relative viability: 0.945
Serdemetan + Crizotinib; first compound 0.04 µM
  relative viability: 0.82
Serdemetan + Crizotinib; first compound 0.1265 µM
  relative viability: 0.79
Serdemetan + Crizotinib; first compound 0.4 µM
  relative viability: 0.793
Serdemetan + Crizotinib; first compound 1.265 µM
  relative viability: 0.462
Serdemetan + Crizotinib; first compound 4 µM
  relative viability: 0.356
Serdemetan + Linsitinib; first compound 0.04 µM
  relative viability: 0.822
Serdemetan + Linsitinib; first compound 0.1265 µM
  relative viability: 0.724
Serdemetan + Linsitinib; first compound 0.4 µM
  relative viability: 0.509
Serdemetan + Linsitinib; first compound 1.265 µM
  relative viability: 0.355
Serdemetan + Linsitinib; first compound 4 µM
  relative viability: 0.268

## NCI-H1666
Selisistat + Palbociclib; first compound 0.4 µM
  relative viability: 0.658
Selisistat + Palbociclib; first compound 1.265 µM
  relative viability: 0.613
Selisistat + Palbociclib; first compound 4 µM
  relative viability: 0.642
Selisistat + Palbociclib; first compound 12.65 µM
  relative viability: 0.659
Selisistat + Palbociclib; first compound 40 µM
  relative viability: 0.611
Selisistat + Navitoclax; first compound 0.4 µM
  relative viability: 1.04
Selisistat + Navitoclax; first compound 1.265 µM
  relative viability: 1.04
Selisistat + Navitoclax; first compound 4 µM
  relative viability: 0.911
Selisistat + Navitoclax; first compound 12.65 µM
  relative viability: 0.77
Selisistat + Navitoclax; first compound 40 µM
  relative viability: 0.916
Serdemetan + Crizotinib; first compound 0.04 µM
  relative viability: 1.01
Serdemetan + Crizotinib; first compound 0.1265 µM
  relative viability: 0.981
Serdemetan + Crizotinib; first compound 0.4 µM
  relative viability: 0.907
Serdemetan + Crizotinib; first compound 1.265 µM
  relative viability: 0.663
Serdemetan + Crizotinib; first compound 4 µM
  relative viability: 0.836
Serdemetan + Linsitinib; first compound 0.04 µM
  relative viability: 0.944
Serdemetan + Linsitinib; first compound 0.1265 µM
  relative viability: 0.85
Serdemetan + Linsitinib; first compound 0.4 µM
  relative viability: 0.761
Serdemetan + Linsitinib; first compound 1.265 µM
  relative viability: 0.784
Serdemetan + Linsitinib; first compound 4 µM
  relative viability: 0.724

## NCI-H1734
Selisistat + Palbociclib; first compound 0.4 µM
  relative viability: 0.366
Selisistat + Palbociclib; first compound 1.265 µM
  relative viability: 0.37
Selisistat + Palbociclib; first compound 4 µM
  relative viability: 0.353
Selisistat + Palbociclib; first compound 12.65 µM
  relative viability: 0.379
Selisistat + Palbociclib; first compound 40 µM
  relative viability: 0.369
Selisistat + Navitoclax; first compound 0.4 µM
  relative viability: 0.961
Selisistat + Navitoclax; first compound 1.265 µM
  relative viability: 0.764
Selisistat + Navitoclax; first compound 4 µM
  relative viability: 0.822
Selisistat + Navitoclax; first compound 12.65 µM
  relative viability: 0.858
Selisistat + Navitoclax; first compound 40 µM
  relative viability: 0.873
Serdemetan + Crizotinib; first compound 0.04 µM
  relative viability: 0.61
Serdemetan + Crizotinib; first compound 0.4 µM
  relative viability: 0.196
Serdemetan + Crizotinib; first compound 1.265 µM
  relative viability: 0.144
Serdemetan + Crizotinib; first compound 4 µM
  relative viability: 0.155
Serdemetan + Linsitinib; first compound 0.04 µM
  relative viability: 0.702
Serdemetan + Linsitinib; first compound 0.4 µM
  relative viability: 0.299
Serdemetan + Linsitinib; first compound 1.265 µM
  relative viability: 0.182
Serdemetan + Linsitinib; first compound 4 µM
  relative viability: 0.194

## NCI-H1755
Selisistat + Palbociclib; first compound 0.4 µM
  relative viability: 0.457
Selisistat + Palbociclib; first compound 1.265 µM
  relative viability: 0.465
Selisistat + Palbociclib; first compound 4 µM
  relative viability: 0.428
Selisistat + Palbociclib; first compound 12.65 µM
  relative viability: 0.485
Selisistat + Palbociclib; first compound 40 µM
  relative viability: 0.439
Selisistat + Navitoclax; first compound 0.4 µM
  relative viability: 1.08
Selisistat + Navitoclax; first compound 1.265 µM
  relative viability: 1.08
Selisistat + Navitoclax; first compound 4 µM
  relative viability: 1
Selisistat + Navitoclax; first compound 12.65 µM
  relative viability: 0.99
Selisistat + Navitoclax; first compound 40 µM
  relative viability: 1.06
Serdemetan + Crizotinib; first compound 0.04 µM
  relative viability: 0.83
Serdemetan + Crizotinib; first compound 0.1265 µM
  relative viability: 0.768
Serdemetan + Crizotinib; first compound 0.4 µM
  relative viability: 0.767
Serdemetan + Crizotinib; first compound 1.265 µM
  relative viability: 0.323
Serdemetan + Crizotinib; first compound 4 µM
  relative viability: 0.428
Serdemetan + Linsitinib; first compound 0.04 µM
  relative viability: 0.956
Serdemetan + Linsitinib; first compound 0.1265 µM
  relative viability: 0.941
Serdemetan + Linsitinib; first compound 0.4 µM
  relative viability: 0.881
Serdemetan + Linsitinib; first compound 1.265 µM
  relative viability: 0.556
Serdemetan + Linsitinib; first compound 4 µM
  relative viability: 0.653

## NCI-H1792
Selisistat + Palbociclib; first compound 0.4 µM
  relative viability: 0.659
Selisistat + Palbociclib; first compound 1.265 µM
  relative viability: 0.606
Selisistat + Palbociclib; first compound 12.65 µM
  relative viability: 0.581
Selisistat + Palbociclib; first compound 40 µM
  relative viability: 0.596
Selisistat + Navitoclax; first compound 0.4 µM
  relative viability: 0.609
Selisistat + Navitoclax; first compound 1.265 µM
  relative viability: 0.611
Selisistat + Navitoclax; first compound 12.65 µM
  relative viability: 0.629
Selisistat + Navitoclax; first compound 40 µM
  relative viability: 0.594
Serdemetan + Crizotinib; first compound 0.04 µM
  relative viability: 0.947
Serdemetan + Crizotinib; first compound 0.1265 µM
  relative viability: 0.926
Serdemetan + Crizotinib; first compound 0.4 µM
  relative viability: 0.867
Serdemetan + Crizotinib; first compound 1.265 µM
  relative viability: 0.939
Serdemetan + Crizotinib; first compound 4 µM
  relative viability: 0.603
Serdemetan + Linsitinib; first compound 0.04 µM
  relative viability: 0.565
Serdemetan + Linsitinib; first compound 0.1265 µM
  relative viability: 0.527
Serdemetan + Linsitinib; first compound 0.4 µM
  relative viability: 0.557
Serdemetan + Linsitinib; first compound 1.265 µM
  relative viability: 0.378
Serdemetan + Linsitinib; first compound 4 µM
  relative viability: 0.231

## NCI-H1915
Selisistat + Palbociclib; first compound 0.4 µM
  relative viability: 0.612
Selisistat + Palbociclib; first compound 1.265 µM
  relative viability: 0.515
Selisistat + Palbociclib; first compound 4 µM
  relative viability: 0.466
Selisistat + Palbociclib; first compound 12.65 µM
  relative viability: 0.554
Selisistat + Palbociclib; first compound 40 µM
  relative viability: 0.587
Selisistat + Navitoclax; first compound 0.4 µM
  relative viability: 0.782
Selisistat + Navitoclax; first compound 1.265 µM
  relative viability: 0.776
Selisistat + Navitoclax; first compound 4 µM
  relative viability: 0.83
Selisistat + Navitoclax; first compound 12.65 µM
  relative viability: 0.797
Selisistat + Navitoclax; first compound 40 µM
  relative viability: 0.804
Serdemetan + Crizotinib; first compound 0.04 µM
  relative viability: 0.86
Serdemetan + Crizotinib; first compound 0.1265 µM
  relative viability: 0.887
Serdemetan + Crizotinib; first compound 0.4 µM
  relative viability: 0.833
Serdemetan + Crizotinib; first compound 1.265 µM
  relative viability: 0.709
Serdemetan + Crizotinib; first compound 4 µM
  relative viability: 0.59
Serdemetan + Linsitinib; first compound 0.04 µM
  relative viability: 1.03
Serdemetan + Linsitinib; first compound 0.1265 µM
  relative viability: 1.08
Serdemetan + Linsitinib; first compound 0.4 µM
  relative viability: 1.08
Serdemetan + Linsitinib; first compound 1.265 µM
  relative viability: 0.975
Serdemetan + Linsitinib; first compound 4 µM
  relative viability: 0.908
